This note sets out measurements from PMC12623744 (Scientific Reports, 2025).

Positions of bridges follow the written chain, without caps; N, C: chain ends. Non-standard residues stand in square brackets, D forms with d. Residues, ends and D or L forms follow the SMILES beside them. Nle = CCCC[C@H](N)C(=O)O

Data set [1] in a line: Peptide stability in medium (Jurkat E6.1 cell supernatant). The class given is in vitro ADME. Particulars: human, Jurkat E6.1 cell supernatant (conditioned culture medium), Jurkat E6.1 cell supernatant (RPMI 1640, 10% FBS), 1.5 mg/mL peptide, 37 °C with stirring, RP-HPLC peak area vs peptide in water at time 0, triplicate. Here is the method: The inhibitory effects of the peptides were also evaluated using cell line-based platform, but before performing this tests, the stability of peptides in medium used in co-culture and cytotoxicity towards cell lines used in the experiments had to be determined. After 24 h of incubation (the time when the peptides are incubated with cells), there is a clear difference in stability between peptides based on one of the interaction centres (light1 and 2 – stability is 88% and 77% respectively) and between those based on the other centre (light3, 4 and 3_E178L – stability ranging from 49% to 29%). However, all peptides, despite some degradation, are present in the sample during the experiment (Figure S5).
HVEM light1 light light light _E178L
Figure S8 . SpS binding check experiments for selected LIGHT-derived peptides and HVEM compared to negative control (HVEM protein without any ligand). Dotted line represents three times the standard deviation range. […]
experiments. […]
Peptide stability was assessed using the supernatant from the Jurkat E6.1 cell line. […] The samples were analyzed by reverse-phase high-performance liquid chromatography (RP-HPLC) on a Kromasil C8 column ([…] × 4.6 mm, 5 μm) using a gradient of 5% to 100% solvent B over 60 minutes. […]
The cytotoxic effects of the peptides were evaluated on two cell lines: Jurkat E6.1 and TCS-Ctrl (a modified BW5147 cell line). […]

A further data set has as its system HVEM/LIGHT complex. Description: Competitive ELISA, inhibition of HVEM/LIGHT complex formation. The class given is biochemical, human. As to conditions: coated HVEM-His 6 µg/mL, LIGHT-Fc 2 µg/mL, highest concentration tested (50 µM). Here is the method: To assess the inhibitory properties of the peptides the ELISA was conducted. Based on the obtained results, it can be concluded that the inhibitory properties of the peptides are strongly correlated with their affinity to HVEM as determined by theoretical methods, as well as with those measured by SpS.
ELISA was conducted using transparent polystyrene 96-well plates (Brand, Wertheim, Germany). Wells were coated with HVEM-His protein at concentration 6 µg/mL dissolved in PBS-T (100 µL per well) and incubated overnight at 4 °C. Unbound sites on the wells by HVEM were blocked with 5% bovine serum albumin (BSA) in PBS-T (200 µL per well). Peptides at three concentrations 50 µM, 12.5 µM, and 3.125 µM dissolved in PBS-T were added and incubated (200 µL per well). […] In the next step horseradish peroxidase (HRP)-conjugated goat antibody (Bio-Rad, Hercules, USA) at dilution 1:3000 in PBS-T (100µL per well) was applied. After each step, wells were washed five times with 200 µL of PBS-T. Incubations were carried out at 37 °C for 2 h, except for the antibody, which was incubated for 1 h. Finally, 200 µL of TMB substrate (Thermo Fisher Scientific,Waltham, MA, USA) was added, and after 15 min of incubation in the dark, absorbance was measured at 492 nm and 650 nm using an Infinite M200 Pro reader (Tecan, Switzerland). The negative control consisted of PBS-T buffer without peptides, while the positive control was mouse anti-human HVEM antibodies (1 µg/well, Bio-Rad, Hercules, CA, USA; #MCA6072GA). Each experiment was performed in three biological replicates, each consisting of three technical replicates and data were analyzed using one-way ANOVA with Dunnett’s post-hoc test in GraphPad Prism (San Diego, USA).

Data set [2] concerns HVEM/LIGHT interaction (NF-κB::eGFP activation). Kind of data set: Cellular reporter assay: JE6.1-NF-κB::eGFP HVEM reporter cells stimulated with TCS LIGHT. The format is cell-based. As to conditions: relative to co-culture without peptides = 100%; highest tested concentration (50 µM chosen as highest); 24 h co-culture; three experiments in triplicate. From the text:
Reporter cells expressing the HVEM protein (JE6.1-NF-κB::eGFP HVEM) and T cell stimulators expressing LIGHT (TCS LIGHT) were utilized in cellular assays and the principle of this cell-based assay has been described in detail in previous publication. In short, when the peptides inhibited the HVEM/LIGHT interaction, a reduction in NF-κB activation was observed, accompanied by a corresponding decrease in enhanced green fluorescent protein (eGFP) levels. The percentage of reporter cell activation was calculated relative to a control condition, which was reporter cell co-cultured with TCS without peptides.
The experiments utilized the JE6.1-NF-κB::eGFP HVEM (modified Jurkat), TCS LIGHT, TCS Crtl and TCS CD86 Ctrl cell lines (modified BW5147) which have been described in earlier studies^57,58. Jurkat E6.1 cell line (describe in Supplementary Materials) was purchased from Cell Line Service GmbH, while the JE6.1-NF-κB::eGFP HVEM, TCS LIGHT, TCS Crtl and TCS CD86 Ctrl cell lines are property of the laboratory of Prof. […] The plates were incubated for 20 min at 4 °C, washed with FACS buffer (PBS, 5–10% FBS, 0.1% NaN₃), and resuspended in 50 µL of fresh FACS buffer. eGFP expression was measured using a CytoFLEX flow cytometer (Beckman Coulter, USA). Data were analyzed using FlowJo v10.10 (FlowJo LLC, USA) and GraphPad Prism (San Diego, USA) with univariate ANOVA and Dunnett’s post-hoc test. […]

As to `CCCC[C@H](NC(=O)[C@H](Cc1ccccc1)NC(=O)[C@H](C)NC(=O)CNC(=O)[C@@H]1CSSC[C@H](NC(=O)[C@@H](NC(=O)[C@@H](NC(=O)[C@H](CCC(=O)O)NC(=O)[C@H](CCC(=O)O)NC(=O)CNC(=O)[C@H](C)NC(=O)[C@H](CCC(=O)O)NC(C)=O)C(C)C)C(C)C)C(=O)N[C@@H](CCCNC(=N)N)C(=O)N[C@@H](C(C)C)C(=O)N[C@@H](CC(C)C)C(=O)N[C@@H](CC(=O)O)C(=O)N[C@@H](CCC(=O)O)C(=O)N[C@@H](CCCNC(=N)N)C(=O)N[C@@H](CC(C)C)C(=O)N[C@@H](C(C)C)C(=O)N[C@@H](CCCNC(=N)N)C(=O)N[C@@H](CC(C)C)C(=O)N[C@@H](CCCNC(=N)N)C(=O)N[C@@H](CC(=O)O)C(=O)NCC(=O)N[C@@H]([C@@H](C)O)C(=O)N[C@@H](CCCNC(=N)N)C(=O)N[C@@H](CO)C(=O)N[C@@H](Cc2ccc(O)cc2)C(=O)N1)C(=O)N[C@H](C(N)=O)C(C)C` [light1] (Ac-EAGEEVVCRVLDERLVRLRDGTRSYCGAF[Nle]V-NH2; disulfide 8-26), in data set [1], the amount remaining (commonly what is left of the initial amount, in per cent) at 24 h, 1.5 mg/mL worked out at 88%. As for `CC(=O)N[C@H](C(=O)N[C@H]1CSSC[C@@H](C(=O)N[C@@H](CO)C(N)=O)NC(=O)[C@H](CCC(N)=O)NC(=O)[C@H](CO)NC(=O)[C@H](C(C)C)NC(=O)[C@H](CC(C)C)NC(=O)[C@H](CC(C)C)NC(=O)[C@H](CCC(=O)O)NC(=O)[C@H](CC(C)C)NC(=O)[C@H](CCC(=O)O)NC(=O)[C@H](CCC(=O)O)NC(=O)[C@@H]2CCCN2C(=O)[C@H](Cc2ccc(O)cc2)NC(=O)[C@H](CCCNC(=N)N)NC(=O)[C@@H]2CCCN2C(=O)[C@H]([C@@H](C)O)NC(=O)[C@H](CCCNC(=N)N)NC(=O)[C@H](CCCCN)NC(=O)[C@H](Cc2ccc(O)cc2)NC(=O)[C@H](CC(C)C)NC(=O)CNC(=O)[C@H](Cc2c[nH]cn2)NC(=O)[C@H]([C@@H](C)O)NC1=O)[C@@H](C)O` [light3] (Ac-TCTHGLYKRTPRYPEELELLVSQCS-NH2; disulfide 2-24), the “inhibition of HVEM/LIGHT complex formation” value with HVEM/LIGHT complex was found to be 22%. Also, the “reporter cell activation level” value in data set [2] is listed as 78%. For the compound `CC(=O)N[C@@H](CCC(=O)O)C(=O)N[C@H]1CSSC[C@@H](C(=O)N[C@H](C(N)=O)C(C)C)NC(=O)[C@H](Cc2ccccc2)NC(=O)[C@H](C)NC(=O)CNC(=O)[C@H](Cc2ccccc2)NC(=O)[C@H](Cc2ccc(O)cc2)NC(=O)[C@H](CO)NC(=O)[C@H](CCCNC(=N)N)NC(=O)[C@H]([C@@H](C)O)NC(=O)CNC(=O)[C@H](CC(=O)O)NC(=O)[C@H](CCCNC(=N)N)NC(=O)[C@H](CC(C)C)NC(=O)[C@H](CCCNC(=N)N)NC(=O)[C@H](C(C)C)NC(=O)[C@H](CC(C)C)NC(=O)[C@H](CCCNC(=N)N)NC(=O)[C@H](CCC(=O)O)NC(=O)[C@H](CC(=O)O)NC(=O)[C@H](CC(C)C)NC(=O)[C@H](C(C)C)NC(=O)[C@H](CCCNC(=N)N)NC(=O)[C@H](C(C)C)NC(=O)[C@H](C(C)C)NC(=O)[C@H](C(C)C)NC(=O)[C@H](CCC(=O)O)NC(=O)[C@H](CCC(=O)O)NC(=O)CNC1=O` [light2] (Ac-ECGEEVVVRVLDERLVRLRDGTRSYFGAFCV-NH2; disulfide 2-30), the fraction remaining at 24 h, 1.5 mg/mL in data set [1] stood at 77%. As for `CC(=O)N[C@H](C(=O)N[C@H]1CSSC[C@@H](C(=O)N[C@@H](CO)C(N)=O)NC(=O)[C@H](CCC(N)=O)NC(=O)[C@H](CO)NC(=O)[C@H](C(C)C)NC(=O)[C@H](CC(C)C)NC(=O)[C@H](CC(C)C)NC(=O)[C@H](CC(C)C)NC(=O)[C@H](CC(C)C)NC(=O)[C@H](CCC(=O)O)NC(=O)[C@H](CCC(=O)O)NC(=O)[C@@H]2CCCN2C(=O)[C@H](Cc2ccc(O)cc2)NC(=O)[C@H](CCCNC(=N)N)NC(=O)[C@@H]2CCCN2C(=O)[C@H]([C@@H](C)O)NC(=O)[C@H](CCCNC(=N)N)NC(=O)[C@H](CCCCN)NC(=O)[C@H](Cc2ccc(O)cc2)NC(=O)[C@H](CC(C)C)NC(=O)CNC(=O)[C@H](Cc2c[nH]cn2)NC(=O)[C@H]([C@@H](C)O)NC1=O)[C@@H](C)O` [light3_E178L] (Ac-TCTHGLYKRTPRYPEELLLLVSQCS-NH2; disulfide 2-24), the “inhibition of HVEM/LIGHT complex formation” value in the data set with HVEM/LIGHT complex was 19%. In addition, the “reporter cell activation level” value in data set [2] is 74%.
